Data set [1] is described as follows: Dissociation constant, pKa of compound. The class given is physicochemical.
A short description of data set [2]: Lipophilicity, logP of compound. The class given is physicochemical. The conditions noted are these: octanol/water.
Data set [3] can be described thus: Distribution coefficient, logD of compound. The class given is physicochemical. The conditions noted are these: octanol/water.
The nature of data set [4]: Apparent permeability across apical to basolateral side in human Caco-2 cells. Type of data set: ADME, cell-based. On the technique in general: Caco-2 monolayers are a common model of the intestinal barrier.
A short description of data set [5]: Half life in CD-1 mouse at 40 mg/kg, ip by HPLC-MS/MS analysis. The class given is ADME, organism-based. Conditions: in vivo.
Data set [6] can be described thus: Half life in CD-1 mouse at 1 mg/kg, iv by HPLC-MS/MS analysis. The class given is ADME, organism-based. The conditions noted are these: in vivo.
Data set [7] in a line: Cmax in CD-1 mouse at 10 mg/kg, po by HPLC-MS/MS analysis. The class given is ADME, organism-based. Details: route oral, dose 10 mg/kg. The conditions noted are these: in vivo.
A short description of data set [8]: Cmax in CD-1 mouse at 40 mg/kg, ip by HPLC-MS/MS analysis. Type of data set: ADME, organism-based. More on the design: route intraperitoneal, dose 40 mg/kg. Conditions: in vivo.
Data set [9] in a line: Tmax in CD-1 mouse at 10 mg/kg, po by HPLC-MS/MS analysis. The class given is ADME, organism-based. Conditions: in vivo.
Data set [10] in a line: Tmax in CD-1 mouse at 40 mg/kg, ip by HPLC-MS/MS analysis. Type of data set: ADME, organism-based. Conditions: in vivo.
Data set [11] is described as follows: AUC(0 to t) in CD-1 mouse at 10 mg/kg, po by HPLC-MS/MS analysis. The conditions noted are these: in vivo. More on the design: dose 10 mg/kg. Type of data set: ADME, organism-based.
The nature of data set [12]: AUC(0 to t) in CD-1 mouse at 40 mg/kg, ip by HPLC-MS/MS analysis. More on the design: dose 40 mg/kg. The conditions noted are these: in vivo. The class given is ADME, organism-based.
The nature of data set [13]: AUC(0 to t) in CD-1 mouse at 1 mg/kg, iv by HPLC-MS/MS analysis. The class given is ADME, organism-based. The conditions noted are these: in vivo. Details: dose 1 mg/kg.
Data set [14] can be described thus: AUC in CD-1 mouse at 40 mg/kg, ip by HPLC-MS/MS analysis. Type of data set: ADME, organism-based. Details: dose 40 mg/kg. The conditions noted are these: in vivo.
The nature of data set [15]: AUC in CD-1 mouse at 1 mg/kg, iv by HPLC-MS/MS analysis. Type of data set: ADME, organism-based. Details: dose 1 mg/kg. Conditions: in vivo.
The nature of data set [16]: Clearance in CD-1 mouse at 1 mg/kg, iv by HPLC-MS/MS analysis. The class given is ADME, organism-based. The conditions noted are these: in vivo.
Data set [17] is described as follows: Volume of distribution at steady state in CD-1 mouse at 1 mg/kg, iv by HPLC-MS/MS analysis. Type of data set: ADME, organism-based. Conditions: in vivo, read-out: Vdss.
Data set [18] is described as follows: Oral bioavailability in CD-1 mouse plasma at 10 mg/kg by HPLC-MS/MS analysis. Type of data set: ADME, organism-based.
Data set [19] can be described thus: Bioavailability in CD-1 mouse plasma at 40 mg/kg, ip by HPLC-MS/MS analysis. Type of data set: ADME, organism-based.
Data set [20] in a line: AUC in Wistar rat plasma at 40 mg/kg, ip. More on the design: dose 40 mg/kg. The class given is ADME, organism-based.
A short description of data set [21]: AUC in Wistar rat brain at 40 mg/kg, ip. Type of data set: ADME, organism-based. More on the design: dose 40 mg/kg.

The structures appear in SMILES notation. Bounds are passed on as bounds.

The term pKa denotes the pH at which an ionisable group is half protonated. In general, logP refers to a log measure of how a compound divides between an organic and an aqueous phase. Read a high logP as a more lipophilic compound. The term logD denotes the decadic logarithm of the distribution of all forms, ionised or not, between an organic phase and buffer at a given pH. Read a low logD as lower lipophilicity. The Papp A→B is the apparent permeability from the apical to the basolateral side of a cell layer. In general, half-life refers to how long it takes for the measured level to halve. Higher therefore signals slow loss. The term Cmax denotes the peak of the concentration-time curve. A word on the Tmax: it is the time from dosing to the highest level. In general, AUC(0-t) refers to exposure summed from dosing to a finite time, without extrapolation to infinity. The term AUC denotes the area under the concentration-time curve, a measure of exposure. Low values mean low exposure, high ones high exposure. Usually clearance stands for the rate of elimination divided by the concentration. A low value points to a low capacity for elimination. Usually bioavailability stands for the share of a dose that reaches the circulation, judged against a reference dose that is usually intravenous. Lower therefore signals poor availability. With `CCC(=O)N(CC1(N2CCN(CC(C)C)CC2)CCOCC1)c1cccc(C(F)(F)F)n1`, the pKa in data set [1] was found to be 8.9. Further, the lipophilicity (logP) in [2] stood at 3.7. Also, the logD in data set [3] was 2.2. Besides, in data set [4], the apparent permeability from apical to basolateral (Papp A→B) was 16.9 ×10⁻⁶ cm/s. In addition, the half-life in [5] was 36 min; in data set [6] it was 24 min. The peak concentration (Cmax) in data set [7] was found to be 130 ng/mL; in data set [8], 11300 ng/mL. Further, the Tmax was found to be 30 min in data set [9] and 4.8 min in [10]. The AUC(0-t) in data set [11] stood at 122 ng·h/mL; in data set [12], 5950 ng·h/mL; in [13], 92 ng·h/mL. Further, the AUC in data set [14] was found to be 5960 ng·h/mL; in [15], 93 ng·h/mL; in data set [20], 2810 ng·h/mL; in [21] it was 2430 ng·h/mL. Also, in [16], the clearance is 180 mL/min/kg. Besides, the Vd in data set [17] was determined as 2.9 L/kg. The bioavailability in data set [18] is 13%; in data set [19], more than 100%.

Source of the values: ChEMBL document CHEMBL5032513, “Propionamide Derivatives as Dual μ-Opioid Receptor Agonists and σ1 Receptor Antagonists for the Treatment of Pain” (J Med Chem, 2021).
